Key:
[1] = molecular target: Cbl-b (36-427 aa truncated form, N-terminus Avi-tag) (Homo sapiens (Human), UniProt Q13191); test: Cbl-b binding: TR-FRET displacement of BODIPY-FL probe
How it was run: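 Avi-tagged Cbl-b 36-427 preincubated 1 h at RT with streptavidin-terbium in HEPES pH 7.5/NaCl/Triton/BSA/TCEP buffer, then 1 uM BODIPY-FL inhibitor probe plus compound added for 1 h. Probe displacement read by TR-FRET; IC50 fitted.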

Human primary T cells [2] = test: T cell activation: secreted IL-2; format: cell-based; details: 48 hours, fold over background normalized to Compound 141A; for IL-2 1 nM: 1 nM compound; for IL-2 10 nM: 10 nM compound; for IL-2 100 nM: 100 nM compound
How it was run: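 Negatively selected human primary T cells on plate-bound anti-CD3 (OKT3) in serum-free medium, treated 48 h at 37° C. with serial compound dilutions in duplicate. Secreted IL-2 by bead-based cytometric assay, expressed as fold over anti-CD3/CD28 background normalized to a reference compound, then binned into ranges.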

Human primary T cells [3] = test: T cell activation: secreted IFN-y; format: cell-based; details: 48 hours, fold over background normalized to Compound 141A; for IFN-y 1 nM: 1 nM compound; for IFN-y 10 nM: 10 nM compound; for IFN-y 100 nM: 100 nM compound
How it was run: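 Negatively selected primary human T cells (1×10^5/well, serum-free XVivo-15) on plates coated with 10 μg/mL anti-CD3 were exposed to serial compound dilutions for 48 h at 37 °C. Secreted IFN-γ was measured by cytometric bead array and expressed as fold over anti-CD3/CD28 background, normalized to a reference compound and binned into ranges A–D.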

Human primary T cells [4] = test: T cell activation: CD69 surface expression by flow cytometry; format: cell-based; details: fold over anti-CD3 stimulated background normalized to Compound 141A; for CD69 10 nM: 10 nM compound; for CD69 100 nM: 100 nM compound
How it was run: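 Negatively selected human primary T cells (1×10^5/well, XVivo-15) were captured on plates coated with 10 μg/mL anti-CD3 (OKT3). They were exposed to serially diluted compounds in duplicate for 48 h at 37° C. CD69 was read by flow cytometry as fold over anti-CD3-only background, normalized to Compound 141A and binned into ranges.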

Chain of Cbl-b (36-427 aa truncated form, N-terminus Avi-tag) (Q13191 36-427): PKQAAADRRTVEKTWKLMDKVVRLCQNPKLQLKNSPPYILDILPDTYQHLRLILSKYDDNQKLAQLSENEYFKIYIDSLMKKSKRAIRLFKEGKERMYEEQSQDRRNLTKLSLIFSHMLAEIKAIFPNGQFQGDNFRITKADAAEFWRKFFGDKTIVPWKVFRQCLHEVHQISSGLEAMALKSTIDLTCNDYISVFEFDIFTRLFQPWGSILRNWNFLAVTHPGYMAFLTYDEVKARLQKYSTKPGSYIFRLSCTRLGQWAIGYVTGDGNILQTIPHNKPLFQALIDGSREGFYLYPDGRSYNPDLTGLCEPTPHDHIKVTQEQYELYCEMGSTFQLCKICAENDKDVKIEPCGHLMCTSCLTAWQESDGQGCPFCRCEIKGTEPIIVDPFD

C=CC(=O)NCCNc1cc(C2(Cc3nncn3C)COC2)cc(N2Cc3c(cc(CN4CCC[C@H](C)C4)cc3C(F)(F)F)C2=O)n1 [Compound 125, (S)-N-(2-((4-(3-((4-methyl-4H-1,2,4-triazol-3-yl)methyl)oxetan-3-yl)-6-(6-((3-methylpiperidin-1-yl)methyl)-1-oxo-4-(trifluoromethyl)isoindolin-2-yl)pyridin-2-yl)amino)ethyl)acrylamide]
IC50 [1]: 5.01 to 20 nM
IL-2 1 nM (Human primary T cells [2]): C (values between 0.10 and 0.30: range “C”)
IL-2 10 nM (Human primary T cells [2]): C (values between 0.10 and 0.30: range “C”)
IL-2 100 nM (Human primary T cells [2]): B (values between 0.31 and 0.79: range “B”)
IFN-y 1 nM (Human primary T cells [3]): C (values between 0.10 and 0.30: range “C”)
IFN-y 10 nM (Human primary T cells [3]): C (values between 0.10 and 0.30: range “C”)
IFN-y 100 nM (Human primary T cells [3]): B (values between 0.31 and 1.00: range “B;”)
CD69 10 nM (Human primary T cells [4]): C (values between 0.30 and 0.60: range “C”)
CD69 100 nM (Human primary T cells [4]): A (values between 0.81 and 1.10: range “A”)

CCSc1cc(C2(Cc3nncn3C)COC2)cc(N2Cc3c(NC)cc(CN4CCC[C@H](C)C4)cc3C2=O)n1.O=CO [Compound 130, 2-[6-(ethylsulfanyl)-4-{3-[(4-methyl-1,2,4-triazol-3-yl)methyl]oxetan-3-yl}pyridin-2-yl]-4-(methylamino)-6-{[(3S)-3-methylpiperidin-1-yl]methyl}-3H-isoindol-1-one; formic acid]
IC50 [1]: 5.01 to 20 nM
IL-2 1 nM (Human primary T cells [2]): C (values between 0.10 and 0.30: range “C”)
IL-2 10 nM (Human primary T cells [2]): C (values between 0.10 and 0.30: range “C”)
IL-2 100 nM (Human primary T cells [2]): B (values between 0.31 and 0.79: range “B”)
IFN-y 1 nM (Human primary T cells [3]): C (values between 0.10 and 0.30: range “C”)
IFN-y 10 nM (Human primary T cells [3]): C (values between 0.10 and 0.30: range “C”)
IFN-y 100 nM (Human primary T cells [3]): B (values between 0.31 and 1.00: range “B;”)
CD69 10 nM (Human primary T cells [4]): C (values between 0.30 and 0.60: range “C”)
CD69 100 nM (Human primary T cells [4]): B (values between 0.61 and 0.80: range “B;”)

C#CCCS(=O)(=O)N1CCN(c2cc(C3(Cc4nncn4C)COC3)cc(N3Cc4c(cc(CN5CCC[C@H](C)C5)cc4C(F)(F)F)C3=O)n2)CC1 [Compound 134, (S)-2-(6-(4-(but-3-yn-1-ylsulfonyl)piperazin-1-yl)-4-(3-((4-methyl-4H-1,2,4-triazol-3-yl)methyl)oxetan-3-yl)pyridin-2-yl)-6-((3-methylpiperidin-1-yl)methyl)-4-(trifluoromethyl)isoindolin-1-one]
IC50 [1]: 5.01 to 20 nM
IL-2 1 nM (Human primary T cells [2]): C (values between 0.10 and 0.30: range “C”)
IL-2 10 nM (Human primary T cells [2]): B (values between 0.31 and 0.79: range “B”)
IL-2 100 nM (Human primary T cells [2]): B (values between 0.31 and 0.79: range “B”)
IFN-y 1 nM (Human primary T cells [3]): B (values between 0.31 and 1.00: range “B;”)
IFN-y 10 nM (Human primary T cells [3]): B (values between 0.31 and 1.00: range “B;”)
IFN-y 100 nM (Human primary T cells [3]): B (values between 0.31 and 1.00: range “B;”)
CD69 10 nM (Human primary T cells [4]): B (values between 0.61 and 0.80: range “B;”)
CD69 100 nM (Human primary T cells [4]): A (values between 0.81 and 1.10: range “A”)

CCC(CC#N)Nc1cc(C2(Cc3nncn3C)COC2)cc(N2Cc3c(cc(CN4CCC[C@H](C)C4)cc3C(F)(F)F)C2=O)n1.O=C(O)C(F)(F)F (stereo partly drawn) [Compound 135, 3-((4-(3-((4-methyl-4H-1,2,4-triazol-3-yl)methyl)oxetan-3-yl)-6-(6-(((S)-3-methylpiperidin-1-yl)methyl)-1-oxo-4-(trifluoromethyl)isoindolin-2-yl)pyridin-2-yl)amino)pentanenitrile; trifluoroacetic acid]
IC50 [1]: 5.01 to 20 nM
IL-2 1 nM (Human primary T cells [2]): C (values between 0.10 and 0.30: range “C”)
IL-2 10 nM (Human primary T cells [2]): B (values between 0.31 and 0.79: range “B”)
IL-2 100 nM (Human primary T cells [2]): B (values between 0.31 and 0.79: range “B”)
IFN-y 1 nM (Human primary T cells [3]): C (values between 0.10 and 0.30: range “C”)
IFN-y 10 nM (Human primary T cells [3]): B (values between 0.31 and 1.00: range “B;”)
IFN-y 100 nM (Human primary T cells [3]): B (values between 0.31 and 1.00: range “B;”)
CD69 10 nM (Human primary T cells [4]): B (values between 0.61 and 0.80: range “B;”)
CD69 100 nM (Human primary T cells [4]): A (values between 0.81 and 1.10: range “A”)

C[C@H]1CCCN(Cc2cc3c(c(C(F)(F)F)c2)CN(c2cc(C4(Cc5nncn5C)COC4)cc(N4CCN(C(=O)CCCN=[N+]=[N-])CC4)n2)C3=O)C1 [Compound 136, (S)-2-(6-(4-(4-azidobutanoyl)piperazin-1-yl)-4-(3-((4-methyl-4H-1,2,4-triazol-3-yl)methyl)oxetan-3-yl)pyridin-2-yl)-6-((3-methylpiperidin-1-yl)methyl)-4-(trifluoromethyl)isoindolin-1-one]
IC50 [1]: 5.01 to 20 nM
IL-2 1 nM (Human primary T cells [2]): C (values between 0.10 and 0.30: range “C”)
IL-2 10 nM (Human primary T cells [2]): B (values between 0.31 and 0.79: range “B”)
IL-2 100 nM (Human primary T cells [2]): B (values between 0.31 and 0.79: range “B”)
IFN-y 1 nM (Human primary T cells [3]): C (values between 0.10 and 0.30: range “C”)
IFN-y 10 nM (Human primary T cells [3]): B (values between 0.31 and 1.00: range “B;”)
IFN-y 100 nM (Human primary T cells [3]): B (values between 0.31 and 1.00: range “B;”)
CD69 10 nM (Human primary T cells [4]): B (values between 0.61 and 0.80: range “B;”)
CD69 100 nM (Human primary T cells [4]): A (values between 0.81 and 1.10: range “A”)

CC#CC(=O)N1CCN(c2cc(C3(Cc4nncn4C)COC3)cc(N3Cc4c(cc(CN5CCC[C@H](C)C5)cc4C(F)(F)F)C3=O)n2)CC1 [Compound 137]
IC50 [1]: 5.01 to 20 nM
IL-2 1 nM (Human primary T cells [2]): C (values between 0.10 and 0.30: range “C”)
IL-2 10 nM (Human primary T cells [2]): B (values between 0.31 and 0.79: range “B”)
IL-2 100 nM (Human primary T cells [2]): B (values between 0.31 and 0.79: range “B”)
IFN-y 1 nM (Human primary T cells [3]): B (values between 0.31 and 1.00: range “B;”)
IFN-y 10 nM (Human primary T cells [3]): B (values between 0.31 and 1.00: range “B;”)
IFN-y 100 nM (Human primary T cells [3]): B (values between 0.31 and 1.00: range “B;”)
CD69 10 nM (Human primary T cells [4]): B (values between 0.61 and 0.80: range “B;”)
CD69 100 nM (Human primary T cells [4]): A (values between 0.81 and 1.10: range “A”)

CCNc1cc(C2(Cc3nncn3C)COC2)cc(N2Cc3c(cc([C@H](CSC)N4CCC[C@H](C)C4)cc3C(F)(F)F)C2=O)n1 [Compound 141A, 2-[6-(ethylamino)-4-{3-[(4-methyl-1,2,4-triazol-3-yl)methyl]oxetan-3-yl}pyridin-2-yl]-6-[(1R)-1-[(3S)-3-methylpiperidin-1-yl]-2-(methylsulfanyl)ethyl]-4-(trifluoromethyl)-3H-isoindol-1-one]
IC50 [1]: 5.01 to 20 nM
IL-2 1 nM (Human primary T cells [2]): B (values between 0.31 and 0.79: range “B”)
IL-2 10 nM (Human primary T cells [2]): B (values between 0.31 and 0.79: range “B”)
IL-2 100 nM (Human primary T cells [2]): A (between 0.80 and 1.40: range “A”)
IFN-y 1 nM (Human primary T cells [3]): B (values between 0.31 and 1.00: range “B;”)
IFN-y 10 nM (Human primary T cells [3]): B (values between 0.31 and 1.00: range “B;”)
IFN-y 100 nM (Human primary T cells [3]): A (fold over background between 1.10 and 2.00: range “A”)
CD69 10 nM (Human primary T cells [4]): A (values between 0.81 and 1.10: range “A”)
CD69 100 nM (Human primary T cells [4]): A (values between 0.81 and 1.10: range “A”)

CCNc1cc(C2(Cc3nncn3C)COC2)cc(N2Cc3c(cc([C@@H](CSC)N4CCC[C@H](C)C4)cc3C(F)(F)F)C2=O)n1 [Compound 141B, 2-[6-(ethylamino)-4-{3-[(4-methyl-1,2,4-triazol-3-yl)methyl]oxetan-3-yl}pyridin-2-yl]-6-[(1s)-1-[(3S)-3-methylpiperidin-1-yl]-2-(methylsulfanyl)ethyl]-4-(trifluoromethyl)-3H-isoindol-1-one]
IC50 [1]: 5.01 to 20 nM
IL-2 1 nM (Human primary T cells [2]): B (values between 0.31 and 0.79: range “B”)
IL-2 10 nM (Human primary T cells [2]): B (values between 0.31 and 0.79: range “B”)
IL-2 100 nM (Human primary T cells [2]): B (values between 0.31 and 0.79: range “B”)
IFN-y 1 nM (Human primary T cells [3]): C (values between 0.10 and 0.30: range “C”)
IFN-y 10 nM (Human primary T cells [3]): B (values between 0.31 and 1.00: range “B;”)
IFN-y 100 nM (Human primary T cells [3]): B (values between 0.31 and 1.00: range “B;”)
CD69 10 nM (Human primary T cells [4]): A (values between 0.81 and 1.10: range “A”)
CD69 100 nM (Human primary T cells [4]): A (values between 0.81 and 1.10: range “A”)

CSc1cc(CN2CCC[C@H](C)C2)cc2c1CN(c1cccc([C@]3(c4nncn4C)C[C@H](C)C3)c1)C2=O [Compound 150, 6-{[(3S)-3-methylpiperidin-1-yl]methyl}-4-(methylsulfanyl)-2-{3-[(1r,3s)-3-methyl-1-(4-methyl-1,2,4-triazol-3-yl)cyclobutyl]phenyl}-3H-isoindol-1-one]
IC50 [1]: 1 to 5 nM
IL-2 1 nM (Human primary T cells [2]): D (values between 0.01 and 0.09: range “D.”)
IL-2 10 nM (Human primary T cells [2]): C (values between 0.10 and 0.30: range “C”)
IL-2 100 nM (Human primary T cells [2]): B (values between 0.31 and 0.79: range “B”)
IFN-y 1 nM (Human primary T cells [3]): B (values between 0.31 and 1.00: range “B;”)
IFN-y 10 nM (Human primary T cells [3]): B (values between 0.31 and 1.00: range “B;”)
IFN-y 100 nM (Human primary T cells [3]): A (fold over background between 1.10 and 2.00: range “A”)
CD69 1 nM (Human primary T cells [4]; 1 nM compound): C (values between 0.30 and 0.60: range “C”)
CD69 10 nM (Human primary T cells [4]): C (values between 0.30 and 0.60: range “C”)
CD69 100 nM (Human primary T cells [4]): A (values between 0.81 and 1.10: range “A”)
